We go through one molecule from patent US7304094B2, “Cyclohexyl sulphones” (Merck Sharp + Dohme, priority 2001, dated 2007).

Molecules are shown by their SMILES.

`O=C(C[C@H]1CC[C@@](c2cc(F)ccc2F)(S(=O)(=O)c2ccc(Cl)cc2)CC1)c1ncn[nH]1` [Example 91] showed a melting point of 147 to 154 °C.
